# According to publication PMC5218480 (PLoS ONE, 2017):
# System: MV-4-11 cells
# Experiment: Gene expression microarray analysis (Affymetrix PrimeView) and GSEA
# Format: cell-based, human
# Set-up: RFU PODN (11730768_x_at) / Fold change /veh PODN (11730768_x_at) / RFU LINC00158 (11744669_a_at) / Fold change /veh LINC00158 (11744669_a_at) / RFU DUSP10 (11751237_a_at) / Fold change /veh DUSP10 (11751237_a_at) / RFU ID3 (11757404_x_at) / Fold change /veh ID3 (11757404_x_at) / RFU PLEKHG5 (11737974_s_at) / Fold change /veh PLEKHG5 (11737974_s_at) / RFU LRRC4B (11730491_at) / Fold change /veh LRRC4B (11730491_at) / RFU GIMAP4 (11747438_a_at) / Fold change /veh GIMAP4 (11747438_a_at) / RFU KRT8 (11758183_x_at) / Fold change /veh KRT8 (11758183_x_at) / RFU CNN1 (11734310_a_at) / Fold change /veh CNN1 (11734310_a_at) / RFU VPS37D (11726825_at) / Fold change /veh VPS37D (11726825_at) / RFU C10orf10 (11716522_x_at) / Fold change /veh C10orf10 (11716522_x_at) / RFU KIR2DL2 /// KIR2DL4 /// KIR2DL5A /// KIR2DL5B /// KIR2DS1 /// KIR2DS2 /// KIR2DS3 /// KIR2DS4 /// KIR3DL3 /// KIR3DL3 /// KIR3DS1 (11738374_at) / Fold change /veh KIR2DL2 /// KIR2DL4 /// KIR2DL5A /// KIR2DL5B /// KIR2DS1 /// KIR2DS2 /// KIR2DS3 /// KIR2DS4 /// KIR3DL3 /// KIR3DL3 /// KIR3DS1 (11738374_at) / RFU C1QL1 (11718748_at) / Fold change /veh C1QL1 (11718748_at) / RFU TMPRSS4 (11747572_a_at) / Fold change /veh TMPRSS4 (11747572_a_at) / RFU HAMP (11756126_x_at) / Fold change /veh HAMP (11756126_x_at) / RFU RNFT2 (11725882_a_at) / Fold change /veh RNFT2 (11725882_a_at) / RFU NR4A2 (11747474_a_at) / Fold change /veh NR4A2 (11747474_a_at) / RFU ABCC12 (11746883_a_at) / Fold change /veh ABCC12 (11746883_a_at) / RFU TMEM136 (11760407_x_at) / Fold change /veh TMEM136 (11760407_x_at) / RFU CLDN22 /// WWC2 (11732394_at) / Fold change /veh CLDN22 /// WWC2 (11732394_at) / RFU HLA-DPB1 (11760878_x_at) / Fold change /veh HLA-DPB1 (11760878_x_at) / RFU SPINT1 (11716480_a_at) / Fold change /veh SPINT1 (11716480_a_at) / RFU GAP43 (11754022_s_at) / Fold change /veh GAP43 (11754022_s_at) / RFU A4GNT (11735810_at) / Fold change /veh A4GNT (11735810_at) / RFU PRB3 (11715151_x_at) / Fold change /veh PRB3 (11715151_x_at) / RFU TUBB4B (11761932_at) / Fold change /veh TUBB4B (11761932_at) / RFU CAPN14 (11732068_a_at) / Fold change /veh CAPN14 (11732068_a_at) / RFU TMCC2 (11721928_a_at) / Fold change /veh TMCC2 (11721928_a_at) / RFU IRGQ (11745062_a_at) / Fold change /veh IRGQ (11745062_a_at) / RFU FAM174B (11720279_a_at) / Fold change /veh FAM174B (11720279_a_at) / RFU TMPRSS4 (11748680_a_at) / Fold change /veh TMPRSS4 (11748680_a_at) / RFU FAM212B (11763350_a_at) / Fold change /veh FAM212B (11763350_a_at) / RFU PLEKHG5 (11743358_a_at) / Fold change /veh PLEKHG5 (11743358_a_at) / RFU ZSCAN30 (11745921_a_at) / Fold change /veh ZSCAN30 (11745921_a_at) / RFU CMKLR1 (11741424_a_at) / Fold change /veh CMKLR1 (11741424_a_at) / RFU LOC101060620 /// MAPK8IP1 (11723275_at) / Fold change /veh LOC101060620 /// MAPK8IP1 (11723275_at) / RFU SPTSSB (11747773_x_at) / Fold change /veh SPTSSB (11747773_x_at) / RFU PRSS12 (11739890_at) / Fold change /veh PRSS12 (11739890_at) / RFU BIN1 (11741810_x_at) / Fold change /veh BIN1 (11741810_x_at) / RFU WNT11 (11732464_a_at) / Fold change /veh WNT11 (11732464_a_at) / RFU C10orf10 (11716521_a_at) / Fold change /veh C10orf10 (11716521_a_at) / RFU C5orf56 (11738089_at) / Fold change /veh C5orf56 (11738089_at) / RFU CYB561 (11721691_x_at) / Fold change /veh CYB561 (11721691_x_at) / RFU ANKRD19P (11752326_a_at) / Fold change /veh ANKRD19P (11752326_a_at) / RFU OR2T12 /// OR2T33 /// OR2T8 (11738714_s_at) / Fold change /veh OR2T12 /// OR2T33 /// OR2T8 (11738714_s_at) / RFU VCAN (11748164_a_at) / Fold change /veh VCAN (11748164_a_at) / RFU JSRP1 (11732532_at) / Fold change /veh JSRP1 (11732532_at) / RFU KRTAP10-11 (11738290_x_at) / Fold change /veh KRTAP10-11 (11738290_x_at) / RFU MYO3A (11730013_a_at) / Fold change /veh MYO3A (11730013_a_at) / RFU EBF3 (11725865_a_at) / Fold change /veh EBF3 (11725865_a_at) / RFU CAMK2N1 (11719241_x_at) / Fold change /veh CAMK2N1 (11719241_x_at) / RFU C5orf56 (11738088_a_at) / Fold change /veh C5orf56 (11738088_a_at) / RFU OLFML3 (11715873_a_at) / Fold change /veh OLFML3 (11715873_a_at) / RFU LOC100653217 /// NTM (11731650_a_at) / Fold change /veh LOC100653217 /// NTM (11731650_a_at) / RFU MAPK11 (11762145_a_at) / Fold change /veh MAPK11 (11762145_a_at) / RFU FIZ1 (11724087_x_at) / Fold change /veh FIZ1 (11724087_x_at) / RFU OASL (11726364_x_at) / Fold change /veh OASL (11726364_x_at) / RFU SOX15 (11748057_x_at) / Fold change /veh SOX15 (11748057_x_at) / RFU CD79A (11719716_a_at) / Fold change /veh CD79A (11719716_a_at) / RFU HIST1H1D (11736915_at) / Fold change /veh HIST1H1D (11736915_at) / RFU CASKIN2 (11723855_a_at) / Fold change /veh CASKIN2 (11723855_a_at) / RFU LOC730098 (11760151_x_at) / Fold change /veh LOC730098 (11760151_x_at) / RFU OR4N2 (11742367_at) / Fold change /veh OR4N2 (11742367_at) / RFU PRRT2 (11749266_a_at) / Fold change /veh PRRT2 (11749266_a_at) / RFU SNX32 (11753110_a_at) / Fold change /veh SNX32 (11753110_a_at) / RFU CDHR5 (11726645_a_at) / Fold change /veh CDHR5 (11726645_a_at) / RFU RCAN1 (11760418_a_at) / Fold change /veh RCAN1 (11760418_a_at) / RFU FAM167A (11723789_a_at) / Fold change /veh FAM167A (11723789_a_at) / RFU FAM26E (11764081_at) / Fold change /veh FAM26E (11764081_at) / RFU ISYNA1 (11749810_s_at) / Fold change /veh ISYNA1 (11749810_s_at) / RFU ACY1 (11761880_at) / Fold change /veh ACY1 (11761880_at) / RFU 11764098_at / Fold change /veh 11764098_at / RFU SAMD14 (11745864_x_at) / Fold change /veh SAMD14 (11745864_x_at) / RFU NPB (11741838_a_at) / Fold change /veh NPB (11741838_a_at) / RFU TMPRSS6 (11731388_a_at) / Fold change /veh TMPRSS6 (11731388_a_at) / RFU KRTAP10-2 (11738614_at) / Fold change /veh KRTAP10-2 (11738614_at) / RFU ARHGAP8 /// PRR5-ARHGAP8 (11727945_x_at) / Fold change /veh ARHGAP8 /// PRR5-ARHGAP8 (11727945_x_at) / RFU KRTAP5-7 /// NADSYN1 (11734609_at) / Fold change /veh KRTAP5-7 /// NADSYN1 (11734609_at) / RFU RASL12 (11751679_a_at) / Fold change /veh RASL12 (11751679_a_at) / RFU CDKN2B (11736163_a_at) / Fold change /veh CDKN2B (11736163_a_at) / RFU PRF1 (11729649_at) / Fold change /veh PRF1 (11729649_at) / RFU, ZNF638 /// ZNF638-IT1 / Fold change vs veh, ZNF638 /// ZNF638-IT1 / RFU, PANK3 / Fold change vs veh, PANK3 / RFU, SH3YL1 / Fold change vs veh, SH3YL1 / RFU, ZEB2 / Fold change vs veh, ZEB2 / RFU, NRIP1 / Fold change vs veh, NRIP1 / RFU, PTTG1IP / Fold change vs veh, PTTG1IP / RFU, CAPN2 / Fold change vs veh, CAPN2 / RFU, MED14 / Fold change vs veh, MED14 / RFU, SNORA58 / Fold change vs veh, SNORA58 / RFU, C1orf63 / Fold change vs veh, C1orf63 / RFU, LRRFIP1 / Fold change vs veh, LRRFIP1 / RFU, NDUFAF7 / Fold change vs veh, NDUFAF7 / RFU, SLC12A2 / Fold change vs veh, SLC12A2 / RFU, IBTK / Fold change vs veh, IBTK / RFU, ESF1 / Fold change vs veh, ESF1 / Fold change vs veh, TMEM50B / RFU, TAOK1 / Fold change vs veh, TAOK1 / RFU, ACBD3 / Fold change vs veh, ACBD3 / RFU, TMA16 / Fold change vs veh, TMA16 / RFU, RWDD3 / Fold change vs veh, RWDD3 / RFU, BCAT1 / Fold change vs veh, BCAT1 / RFU, EDEM3 / Fold change vs veh, EDEM3 / RFU, TMEM33 / Fold change vs veh, TMEM33 / RFU, WDR75 / Fold change vs veh, WDR75 / RFU, AHCTF1 / Fold change vs veh, AHCTF1 / RFU, TFRC / Fold change vs veh, TFRC / RFU, ZDHHC17 / Fold change vs veh, ZDHHC17 / RFU, NOM1 / Fold change vs veh, NOM1 / RFU, ARL8B / Fold change vs veh, ARL8B / RFU, ZBTB11 / Fold change vs veh, ZBTB11 / RFU, TAMM41 / Fold change vs veh, TAMM41 / RFU, KIAA1704 /// LOC100996395 / Fold change vs veh, KIAA1704 /// LOC100996395 / RFU, ING1 / Fold change vs veh, ING1 / RFU, TRMT61B / Fold change vs veh, TRMT61B / RFU, FUBP3 / Fold change vs veh, FUBP3 / RFU, TP53 / Fold change vs veh, TP53 / RFU, TNKS2 / Fold change vs veh, TNKS2 / RFU, ZFP14 / Fold change vs veh, ZFP14 / RFU, ACTR2 / Fold change vs veh, ACTR2 / RFU, PPP3R1 / Fold change vs veh, PPP3R1 / RFU, PIK3R1 / Fold change vs veh, PIK3R1 / RFU, HNRNPA1 / Fold change vs veh, HNRNPA1 / RFU, RNF170 / Fold change vs veh, RNF170 / RFU, ZNF28 / Fold change vs veh, ZNF28 / RFU, RNGTT / Fold change vs veh, RNGTT / RFU, OGT / Fold change vs veh, OGT / RFU, BRD1 / Fold change vs veh, BRD1 / RFU, MARS / Fold change vs veh, MARS / RFU, ZNF655 / Fold change vs veh, ZNF655 / RFU, FAHD1 / Fold change vs veh, FAHD1 / RFU, BDP1 / Fold change vs veh, BDP1 / RFU, LRRCC1 / Fold change vs veh, LRRCC1 / RFU, ARID1A / Fold change vs veh, ARID1A / RFU, ZNF146 / Fold change vs veh, ZNF146 / RFU, ZNF330 / Fold change vs veh, ZNF330 / RFU, GPN3 / Fold change vs veh, GPN3 / RFU, C9orf123 / Fold change vs veh, C9orf123 / RFU, N4BP2L2 / Fold change vs veh, N4BP2L2 / RFU, ARFIP1 / Fold change vs veh, ARFIP1 / RFU, FAM179B / Fold change vs veh, FAM179B / RFU, BCL10 / Fold change vs veh, BCL10 / RFU, UHRF1BP1L / Fold change vs veh, UHRF1BP1L / RFU, BET1 / Fold change vs veh, BET1 / RFU, CNOT2 / Fold change vs veh, CNOT2 / RFU, ZNF268 / Fold change vs veh, ZNF268 / Fold change vs veh, ZNF507 / RFU, DGCR2 / Fold change vs veh, DGCR2 / RFU, WDSUB1 / Fold change vs veh, WDSUB1 / Fold change vs veh, HSP90B1 /// MIR3652 / RFU, ADSS / Fold change vs veh, ADSS / RFU, GK / Fold change vs veh, GK / RFU, ZNF148 / Fold change vs veh, ZNF148 / RFU, TAF9 / Fold change vs veh, TAF9 / RFU, SLC1A5 / Fold change vs veh, SLC1A5 / RFU, SLMO2 / Fold change vs veh, SLMO2 / RFU, ABCC4 / Fold change vs veh, ABCC4 / RFU, LOC101060439 /// RAP1B / Fold change vs veh, LOC101060439 /// RAP1B / RFU, RFX7 / Fold change vs veh, RFX7 / RFU, GTPBP10 / Fold change vs veh, GTPBP10 / RFU, CNEP1R1 / Fold change vs veh, CNEP1R1 / RFU, BIVM-ERCC5 /// ERCC5 / Fold change vs veh, BIVM-ERCC5 /// ERCC5 / RFU, ILF3 / Fold change vs veh, ILF3 / RFU 11762660_at / Fold change /veh 11762660_at / RFU VCAN (11757783_s_at) / Fold change /veh VCAN (11757783_s_at) / RFU DDX43 (11728927_at) / Fold change /veh DDX43 (11728927_at) / RFU KRT8 (11758188_x_at) / Fold change /veh KRT8 (11758188_x_at) / RFU NKD1 (11759106_at) / Fold change /veh NKD1 (11759106_at) / RFU SRD5A1 (11742802_a_at) / Fold change /veh SRD5A1 (11742802_a_at) / RFU TPSAB1 /// TPSB2 (11721975_s_at) / Fold change /veh TPSAB1 /// TPSB2 (11721975_s_at) / RFU GSTM3 (11746129_a_at) / Fold change /veh GSTM3 (11746129_a_at) / RFU IL23R (11737362_x_at) / Fold change /veh IL23R (11737362_x_at) / RFU TMEM51 (11727254_a_at) / Fold change /veh TMEM51 (11727254_a_at) / RFU PIWIL2 (11732686_x_at) / Fold change /veh PIWIL2 (11732686_x_at) / RFU ORM1 (11744905_x_at) / Fold change /veh ORM1 (11744905_x_at) / RFU CCDC152 (11743942_at) / Fold change /veh CCDC152 (11743942_at) / RFU ECM1 (11717891_a_at) / Fold change /veh ECM1 (11717891_a_at) / RFU IL23R (11748794_a_at) / Fold change /veh IL23R (11748794_a_at) / RFU TNFAIP8L3 (11732012_x_at) / Fold change /veh TNFAIP8L3 (11732012_x_at) / RFU MBOAT4 (11741988_at) / Fold change /veh MBOAT4 (11741988_at) / RFU 11764193_at / Fold change /veh 11764193_at / RFU TMEM53 (11763286_at) / Fold change /veh TMEM53 (11763286_at) / RFU MAGEB2 (11727129_at) / Fold change /veh MAGEB2 (11727129_at) / RFU TMEM200A (11744735_a_at) / Fold change /veh TMEM200A (11744735_a_at) / RFU CCDC152 (11751479_a_at) / Fold change /veh CCDC152 (11751479_a_at) / RFU FAM211A (11726209_a_at) / Fold change /veh FAM211A (11726209_a_at) / RFU RGS16 (11746705_a_at) / Fold change /veh RGS16 (11746705_a_at) / RFU VCAN (11755009_s_at) / Fold change /veh VCAN (11755009_s_at) / RFU RHOB (11743442_s_at) / Fold change /veh RHOB (11743442_s_at) / RFU RGS16 (11720943_a_at) / Fold change /veh RGS16 (11720943_a_at) / RFU RGS16 (11720944_at) / Fold change /veh RGS16 (11720944_at) / RFU, VPS4B / Fold change vs veh, VPS4B / RFU, CREB1 / Fold change vs veh, CREB1 / RFU, DNAJC13 / Fold change vs veh, DNAJC13 / RFU, GNAQ / Fold change vs veh, GNAQ / RFU, CDK5R1 / Fold change vs veh, CDK5R1 / RFU, ZRANB3 / Fold change vs veh, ZRANB3 / RFU, CUL4A / Fold change vs veh, CUL4A / RFU, CCNY / Fold change vs veh, CCNY / RFU, UFL1 / Fold change vs veh, UFL1 / RFU, COG3 / Fold change vs veh, COG3 / RFU, DIAPH2 / Fold change vs veh, DIAPH2 / RFU, SKA2 / Fold change vs veh, SKA2 / RFU, AFF3 / Fold change vs veh, AFF3 / RFU, LMF1 / Fold change vs veh, LMF1 / RFU, IPO11 / Fold change vs veh, IPO11 / RFU, DFFB / Fold change vs veh, DFFB / RFU, FOXP1 / Fold change vs veh, FOXP1 / RFU, CARD8 / Fold change vs veh, CARD8 / RFU, STRN3 / Fold change vs veh, STRN3 / RFU, ADK / Fold change vs veh, ADK / RFU, RASSF2 / Fold change vs veh, RASSF2 / RFU, WIPF1 / Fold change vs veh, WIPF1 / RFU, LARP1B / Fold change vs veh, LARP1B / RFU, RASA1 / Fold change vs veh, RASA1 / RFU, RB1 / Fold change vs veh, RB1 / RFU, PPFIA1 / Fold change vs veh, PPFIA1 / RFU, MAT2A / Fold change vs veh, MAT2A / RFU, CCT5 / Fold change vs veh, CCT5 / RFU, WDR92 / Fold change vs veh, WDR92 / RFU, CUX1 / Fold change vs veh, CUX1 / RFU, TTC7A / Fold change vs veh, TTC7A / RFU, TMEM135 / Fold change vs veh, TMEM135 / RFU, DEPTOR / Fold change vs veh, DEPTOR / RFU, CPM / Fold change vs veh, CPM / RFU, DNAJB6 / Fold change vs veh, DNAJB6 / RFU, CACNA2D3 / Fold change vs veh, CACNA2D3 / RFU, DTX4 / Fold change vs veh, DTX4 / RFU, TFCP2 / Fold change vs veh, TFCP2 / RFU, GMCL1 /// GMCL1P1 / Fold change vs veh, GMCL1 /// GMCL1P1 / RFU, AEBP2 / Fold change vs veh, AEBP2 / RFU, SNHG1 /// SNORD22 /// SNORD25 /// SNORD26 /// SNORD27 /// SNORD28 /// SNORD29 /// SNORD31 / Fold change vs veh, SNHG1 /// SNORD22 /// SNORD25 /// SNORD26 /// SNORD27 /// SNORD28 /// SNORD29 /// SNORD31 / Fold change (Aza/veh), C12orf56 (ProbeSet 11735607_a_at) / Fold change (ACY-1035/veh), C12orf56 (ProbeSet 11735607_a_at) / Fold change (Aza/veh), FGFR1OP (ProbeSet 11751329_s_at) / Fold change (ACY-1035/veh), FGFR1OP (ProbeSet 11751329_s_at) / Fold change (Aza/veh), VPS36 (ProbeSet 11739960_a_at) / Fold change (ACY-1035/veh), VPS36 (ProbeSet 11739960_a_at) / RFU SYPL1 (11715823_x_at) / Fold change /veh SYPL1 (11715823_x_at) / RFU IGFBP7 (11715501_s_at) / Fold change /veh IGFBP7 (11715501_s_at) / RFU REEP3 (11722064_at) / Fold change /veh REEP3 (11722064_at) / RFU IGLL1 (11728026_x_at) / Fold change /veh IGLL1 (11728026_x_at): dose or concentration left out as unconfirmed
# Settings: MV-4-11 cells, 48 hours
smiles,measurement,value
Nc1ccc(-c2cccs2)cc1NC(=O)c1ccc2c(c1)cc(C1CC1)n2CCN1CCOCC1 [ACY-1035],RFU SYPL1 (11715823_x_at),565.47 RFU
